In patent publication US8410113B2, “(2R)-1-(3-chloro-2-pyrazinyl)-2-methylpiperazine and salts thereof” (Biovitrum AB (publ), priority 2002, dated 2013):
“Also recorded” adds a separate entry of the source.

Legend:
[1] = Intrinsic dissolution rate; type: physicochemical; details: for intrinsic dissolution rate (in words, order): salts of Example 2B
From the text: Intrinsic Dissolution Rate (pH 1.2)
(§1) Solubility and Intrinsic Dissolution Rate

[2] = Crystallinity (X-rays / powder X-ray diffraction); type: physicochemical; details: for Crystallinity (Powder X-Ray Diffraction): salts of Example 2C; for Crystallinity (X-Rays): salts of Example 2A; for degree of crystallinity (Powder X-Ray Diffraction): salts of Example 2B, fumarate
From the text: (§2) Crystallinity (Powder X-Ray Diffraction)
as §2

[3] = Hygroscopicity (DVS, storage at RT/different RHs and at 40° C./75% RH); type: physicochemical
Method: Hygroscopicity (DVS, Storage at RT/Different RHs and at 40° C./75% RH)

[4] = controlled studies; cited from earlier work
[5] = Chemical stability (2 weeks at 65° C.); type: physicochemical; details: salts of Example 2A, also RT/90% RH
Method: Chemical Stability (2 Weeks at 65° C.)

[6] = salts of Example 2C; assessment, no test described; cited from earlier work
Solubility = assay: Solubility
From the text: Solubility (Water, pH 1.2 and pH 7.4 Buffers)
as §1

[7] = Polymorphism screen (RT evaporation, cooling crystallization at −20° C.); type: physicochemical; details: salts of Example 2A, cooling crystallization at −20° C. in different solvent or mixtures
[8] = salts of Example 2C, purified water, preliminary studies
[9] = salts of Example 2A, DVS, storage at RT/different RHs

CCOc1ncccc1OCCOc1nccnc1N1CCNC[C@H]1C [Example 2B, (2R)-1-(3-{2-[(2-ethoxy-3-pyridinyl)oxy]ethoxy}-2-pyrazinyl)-2-methylpiperazine]
intrinsic dissolution rate (in words, order) [1]: base<fumarate<succinate

C[C@@H]1CNCCN1c1nccnc1OCCOc1cccnc1OCCN(C)C.O=C(O)CN(CCN(CC(=O)O)CC(=O)O)CC(=O)O [edeteate, (2R)-1-[3-(2-{[2-(2-dimethylaminoethoxy)-3-pyridinyl]oxy}ethoxy)-2-pyrazinyl]-2-methylpiperazine, edeteate]
Crystallinity (Powder X-Ray Diffraction) [2]: practically amorphous
Hygroscopicity ([3]; salts of Example 2C): very hygroscopic and deliquescent

CCN[C@@H](C)Cc1cccc(C(F)(F)F)c1 [dexfenfluramine]
weight reduction [4]: weight reduction

(2R)-methyl-1-{3-[2-(3-pyridinyloxy)ethoxy]-2-pyrazinyl}piperazine, cinnamate
Intrinsic dissolution rate (IDR) ([1]; salts of Example 2A, pH 1.2): 10^−3 mgsec^−1 cm^−2
Chemical stability [5]: Positive data
Crystallinity (X-Rays) [2]: Positive results
behavior upon exposition to 40° C./75% RH ([3]; salts of Example 2A, 40° C./75% RH): good behavior

C[C@@H]1CNCCN1c1nccnc1OCCOc1cccnc1OCCN(C)C.O=C(O)C(=O)O [oxalate, (2R)-1-[3-(2-{[2-(2-dimethylaminoethoxy)-3-pyridinyl]oxy}ethoxy)-2-pyrazinyl]-2-methylpiperazine, oxalate]
Crystallinity (Powder X-Ray Diffraction) [2]: high degree of crystallinity
Hygroscopicity ([3]; salts of Example 2C): low
Toxicological acceptability [6]: inappropriate due to toxicological reasons

(2R)-1-[3-(2-{[2-(2-dimethylaminoethoxy)-3-pyridinyl]oxy}ethoxy)-2-pyrazinyl]-2-methylpiperazine, terephthalate
Crystallinity (Powder X-Ray Diffraction) [2]: predominantly crystalline
Hygroscopicity ([3]; salts of Example 2C): hight (deliquescent)
solubility (Solubility; [8]): < 1 mg/mL

C[C@@H]1CNCCN1c1nccnc1OCCOc1cccnc1OCCN(C)C.O=C(O)C(O)C(O)C(=O)O [D-tartrate, (2R)-1-[3-(2-{[2-(2-dimethylaminoethoxy)-3-pyridinyl]oxy}ethoxy)-2-pyrazinyl]-2-methylpiperazine, D-tartrate]
Crystallinity (Powder X-Ray Diffraction) [2]: low degree of crystallinity
Hygroscopicity ([3]; salts of Example 2C): very hygroscopic and deliquescent

C[C@@H]1CNCCN1c1nccnc1OCCOc1cccnc1.O=C(O)c1ccccc1 [benzoate, (2R)-methyl-1-{3-[2-(3-pyridinyloxy)ethoxy]-2-pyrazinyl}piperazine, benzoate]
Polymorphism [7]: did not show other polymorphs
Chemical stability [5]: Positive data
Crystallinity (X-Rays) [2]: Positive results
Hygroscopicity [3, 9]: cake formation and darkening

CCOc1ncccc1OCCOc1nccnc1N1CCNC[C@H]1C.O=C(O)CCC(=O)O
melting point: 116 to 132 °C

CNCCC(Oc1ccc(C(F)(F)F)cc1)c1ccccc1 (stereo not shown) [fluoxetine]
weight reduction [4]: weight reduction

CCOc1ncccc1OCCOc1nccnc1N1CCNC[C@H]1C.O=C(O)/C=C/C(=O)O [fumarate, (2R)-1-(3-{2-[(2-ethoxy-3-pyridinyl)oxy]ethoxy}-2-pyrazinyl)-2-methylpiperazine, fumarate, reference compound]
intrinsic dissolution rate (in words, order) ([1]; fumarate): base<fumarate<succinate
intrinsic dissolution rate (in words, order) ([1]; listed as fumarate salt, fumarate): inferior to that of the succinate salt
degree of crystallinity (Powder X-Ray Diffraction) [2]: succinate>acetate>fumarate
degree of crystallinity (Powder X-Ray Diffraction) ([2]; listed as fumarate salt): inferior to that of the succinate salt
solubility (Solubility; 0.9% w/w NaCl, saline or isotonic): > 93 mg/mL
solubility (Solubility; phosphate buffer, pH 7.4, aqueous buffer): > 68 mg/mL
solubility (in words, comparison of salts) (Solubility; salts of Example 2B): inferior to that of the succinate salt

(2R)-1-[3-(2-{[2-(2-dimethylaminoethoxy)-3-pyridinyl]oxy}ethoxy)-2-pyrazinyl]-2-methylpiperazine, 1,3,5-benzenetricarboxylate
Crystallinity (Powder X-Ray Diffraction) [2]: predominantly crystalline
Hygroscopicity ([3]; salts of Example 2C): low
solubility (in words, comparison of salts) (Solubility; salts of Example 2C): lower than for the phosphoric acid salt
solubility (Solubility; salts of Example 2C, SGF (simulated gastric fluid without enzymes; pH of filtrate 2.9), preliminary studies): > 19 mg/mL
solubility (Solubility; salts of Example 2C, SIF (simulated intestinal fluid without enzymes; pH of filtrate 4.2), preliminary studies): 11 mg/mL
solubility (Solubility; [8]): ≈ 4 mg/ml

C[C@@H]1CNCCN1c1nccnc1OCCOc1cccnc1OCCN(C)C.O=P(O)(O)O [Example 3C, (2R)-1-[3-(2-{[2-(2-dimethylaminoethoxy)-3-pyridinyl]oxy}ethoxy)-2-pyrazinyl]-2-methylpiperazine, phosphoric acid salt]
Crystallinity (Powder X-Ray Diffraction) [2]: predominantely crystalline to moderately crystallinity; also recorded: high crystallinity
Hygroscopicity ([3]; salts of Example 2C): low and low hygroscopicity
melting point: 140 to 168 °C
Toxicological acceptability [6]: low toxicity
solubility (in words, comparison of salts) (Solubility; salts of Example 2C): high solubility
solubility (Solubility; water): ≥ 590 mg/mL

(2R)-1-(3-{2-[(2-ethoxy-3-pyridinyl)oxy]ethoxy}-2-pyrazinyl)-2-methylpiperazine, fumarate [reference compound]
Chemical stability [5]: less stable
Crystallinity (X-Rays) [2]: lower crystallinity
Hygroscopicity [3, 9]: hydrate conversion

C[C@@H]1CNCCN1c1nccnc1OCCOc1cccnc1OCCN(C)C.O=C(O)CCC(=O)O [succinate, (2R)-1-[3-(2-{[2-(2-dimethylaminoethoxy)-3-pyridinyl]oxy}ethoxy)-2-pyrazinyl]-2-methylpiperazine, succinate]
intrinsic dissolution rate (in words, order) [1]: base<fumarate<succinate
Hygroscopicity ([3]; salts of Example 2C): very hygroscopic and deliquescent
solubility (in words, comparison of salts) (Solubility; salts of Example 2B): higher than the fumarate salt

C[C@@H]1CNCCN1c1nccnc1OCCOc1cccnc1OCCN(C)C.O=C(O)CC(O)(CC(=O)O)C(=O)O [citrate, (2R)-1-[3-(2-{[2-(2-dimethylaminoethoxy)-3-pyridinyl]oxy}ethoxy)-2-pyrazinyl]-2-methylpiperazine, citrate]
Crystallinity (Powder X-Ray Diffraction) [2]: practically amorphous
Hygroscopicity ([3]; salts of Example 2C): very hygroscopic and deliquescent

C[C@@H]1CNCCN1c1nccnc1OCCOc1cccnc1.Cl [hydrochloride, (2R)-methyl-1-{3-[2-(3-pyridinyloxy)ethoxy]-2-pyrazinyl}piperazine, hydrochloride, reference compound]
Crystallinity (X-Rays) [2]: lower crystallinity
Hygroscopicity [3, 9]: deliquescent

C[C@@H]1CNCCN1c1nccnc1OCCOc1cccnc1OCCN(C)C.O=C(O)[C@@H](O)[C@H](O)[C@H](O)[C@@H](O)C(=O)O [galactareate, (2R)-1-[3-(2-{[2-(2-dimethylaminoethoxy)-3-pyridinyl]oxy}ethoxy)-2-pyrazinyl]-2-methylpiperazine, galactareate (mucic acid salt)]
Crystallinity (Powder X-Ray Diffraction) [2]: partially amorphous

(2R)-1-[3-(2-{[2-(2-dimethylaminoethoxy)-3-pyridinyl]oxy}ethoxy)-2-pyrazinyl]-2-methylpiperazine, 1,5-naphthalenedisulfonate
Crystallinity (Powder X-Ray Diffraction) [2]: predominantly crystalline
Hygroscopicity ([3]; salts of Example 2C): moderate
solubility (Solubility; salts of Example 2C, medium not stated): > 540 mg/mL
